How the values were obtained:
293T cells = test: In vitro SEAP expression via QuantiBlue assay, DNA nanoparticles; type: cell-based; conditions: 24 hours post-treatment
Protocol: To test the ability of these nanoparticles to express SEAP in vitro, 293T cells were treated with nanoparticles. Each well of a 96 well dish of 293 Ts was treated with 10 μL (approximately 0.25 μg) of each formulation product diluted into a final volume of 200 μL with a 1:1 Optimem:PBS mix. The nontreated wells had 200 μL of 50/50 PBS/OptiMEM. Twenty four hours post-treatment or transfection, conditioned media from each culture was collected. Media was analyzed using the QuantiBlue assay (InvivoGen). 180 μL QuantiBlue reagent was combined with 50 μL of media from wells. Readings were taken after 40 minutes by measuring absorbance at 650 nm as directed by the manufacturer's protocol. For the no treatment Negative Control, 50 μL of media from a well not treated with nanoparticles was added to 180 μL QuantiBlue Reagent. These samples were treated the same way as all other samples in all steps of the assay.
FIG. 11 illustrates in vitro SEAP expression of nanoparticle formulations with modified dendrimers used to treat 293T cells.

[1] = test system: Influenza A virus (PR/8/34); test: Hemagglutinin Inhibition Assay (HAI) on vaccinated animal sera
Protocol: HAI tests were performed on vaccinated animal sera according to the standard recommended WHO protocol [World Health Organization. […] Sera were treated with receptor destroying enzyme (Denka Seiken Co. Ltd, Tokyo, Japan) at 37° C. overnight then heat inactivated for 30 minutes at 56° C. After cooling down to RT, those serum samples were mixed with 2 volume of 25% suspension of turkey red blood cells (RBC, Rockland Immunochemicals) and incubated at room temperature for 2 hours followed by centrifugation to remove RBC. The treated sera, now considered to be at a 1:10 dilution, were serially diluted and incubated with 4 HA units of inactivated Influenza A virus (PR/8/34, Virusys #IAV210) for 30 minutes at room temperature. An equal volume of 0.5% turkey RBC was added to each well and incubated for 30 minutes at room temperature.

CCCCCCCCCCCCCCCCC(=O)NCCCN(C)CCCNC(=O)OCC(C)(COC(=O)NCCCN(C)CCCNC(=O)CCCCCCCCCCCCCCCC)C(=O)OCC(CC)(COC(=O)C(C)(COC(=O)NCCCN(C)CCCNC(=O)CCCCCCCCCCCCCCCC)COC(=O)NCCCN(C)CCCNC(=O)CCCCCCCCCCCCCCCC)COC(=O)C(C)(COC(=O)NCCCN(C)CCCNC(=O)CCCCCCCCCCCCCCCC)COC(=O)NCCCN(C)CCCNC(=O)CCCCCCCCCCCCCCCC [PE-Heptadecanoic]
in vitro SEAP expression (293T cells): resulted in SEAP expression

CCCCCCCC/C=C\CCCCCCCC(=O)NCCCN(C)CCCNC(=O)OCC(C)(COC(=O)NCCCN(C)CCCNC(=O)CCCCCCC/C=C\CCCCCCCC)C(=O)OCC(CC)(COC(=O)C(C)(COC(=O)NCCCN(C)CCCNC(=O)CCCCCCC/C=C\CCCCCCCC)COC(=O)NCCCN(C)CCCNC(=O)CCCCCCC/C=C\CCCCCCCC)COC(=O)C(C)(COC(=O)NCCCN(C)CCCNC(=O)CCCCCCC/C=C\CCCCCCCC)COC(=O)NCCCN(C)CCCNC(=O)CCCCCCC/C=C\CCCCCCCC [PE-Oleic]
in vitro SEAP expression (293T cells): resulted in SEAP expression | average HI titer ([1]; week 4, after prime vaccination, 5 μg nanoparticle vaccine, HA mRNA): 40 | average HI titer ([1]; week 5, one week after boost immunization, 5 μg): 192
